14 molecules from PubChem BioAssay (NCI) can be followed below.

Among the test systems are IGROV1 ovarian; SF-295 CNS; K-562 leukemia; SK-MEL-5 melanoma; COLO 205 colon; HL-60(TB) leukemia; CCRF-CEM leukemia; KM12 colon; MDA-MB-435.
Common to all, as to assay: inhibition of tumour cell growth, NCI panel, 48 h

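48-hour exposure; five concentrations; linearly interpolated endpoints. GI50 is the concentration that inhibits growth by half. TGI: total growth inhibition.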

In the case of `CC(=O)OCC1OC(Sc2ccccn2)C=CC1OC(C)=O` (configuration not stated), the TGI with IGROV1 ovarian, in the test with SF-295 CNS, in the test on K-562 leukemia, in the test on SK-MEL-5 melanoma, with COLO 205 colon and in the test with HL-60(TB) leukemia was more than 100 µM each time. For the same molecule, the TGI in the test with CCRF-CEM leukemia and in the test with KM12 colon was more than 100 µM each time.

Consider `CC(C)CC(=O)NS(=O)(=O)c1ccccc1`, for which the TGI in the test with IGROV1 ovarian, with SF-295 CNS, with K-562 leukemia, in the test on COLO 205 colon, with HL-60(TB) leukemia and in the test on CCRF-CEM leukemia was more than 100 µM in each case. The TGI in the test on KM12 colon was more than 100 µM.

For the molecule `CCSc1nc2n(c(=S)n1)CCN2C`, the TGI in the test with IGROV1 ovarian is 45.9 µM; in the test on SF-295 CNS it was 41.2 µM; with K-562 leukemia, 79.5 µM; in the test with SK-MEL-5 melanoma, 30 µM; in the test on HL-60(TB) leukemia, 46.1 µM; in the test with KM12 colon it was 52.3 µM.

Regarding `O=c1/c(=C/c2ccc3c(c2)OCO3)sc2nnc(-c3ccco3)n12`, the TGI in the test on IGROV1 ovarian, in the test with SF-295 CNS, in the test with K-562 leukemia, in the test with SK-MEL-5 melanoma, with COLO 205 colon and with HL-60(TB) leukemia was more than 100 µM throughout. Also, the TGI with CCRF-CEM leukemia and in the test on KM12 colon was more than 100 µM in each case.

Regarding `CN(C)/C=N/c1nc2ncn(CCOC(=O)c3ccccc3)c2c(=O)[nH]1`, the TGI in the test on IGROV1 ovarian, in the test on SF-295 CNS, with K-562 leukemia, in the test on SK-MEL-5 melanoma, with COLO 205 colon and in the test with HL-60(TB) leukemia was more than 100 µM in each case. Moreover, the TGI in the test with CCRF-CEM leukemia and with KM12 colon was more than 100 µM in each case.

Regarding `O=C(c1ccc2c3c(ccc(C(=O)C(F)(F)F)c13)CC2)C(F)(F)F`, the TGI is more than 100 µM with IGROV1 ovarian, more than 100 µM in the test with SF-295 CNS, 44.1 µM in the test with COLO 205 colon and more than 100 µM with KM12 colon.

On to `Oc1cc2c(cc1O)-c1[nH]ncc1CC2`, for which the TGI with IGROV1 ovarian was more than 100 µM; in the test with SF-295 CNS, more than 100 µM; with K-562 leukemia, more than 100 µM; with SK-MEL-5 melanoma, more than 100 µM; in the test with COLO 205 colon, 66.5 µM; with HL-60(TB) leukemia, 76.6 µM. Moreover, the TGI with CCRF-CEM leukemia is 47.7 µM; in the test with KM12 colon, more than 100 µM.

With `CCC(/C(=N\Nc1c(Cl)cc(Cl)cc1Cl)c1ccccc1)n1ccnc1C` (configuration not stated), the TGI was determined as 28.8 µM in the test on IGROV1 ovarian; 24.7 µM in the test with SF-295 CNS; 51.6 µM in the test on K-562 leukemia; 21.2 µM with SK-MEL-5 melanoma; 24.1 µM in the test with COLO 205 colon; 14.6 µM in the test with HL-60(TB) leukemia. For the same molecule, the TGI with CCRF-CEM leukemia was more than 100 µM; in the test on KM12 colon it was 26.8 µM.

On to `O=CC1(C2(C=O)c3ccccc3-c3ccccc32)c2ccccc2-c2ccccc21`, for which the GI50 is 323 nM in the test on IGROV1 ovarian; 2300 nM in the test with K-562 leukemia; 1950 nM in the test with SK-MEL-5 melanoma; 1920 nM with MDA-MB-435; 1750 nM in the test on HL-60(TB) leukemia; 3.77 µM with CCRF-CEM leukemia. The TGI in the test with IGROV1 ovarian is 0.924 µM; in the test with K-562 leukemia, more than 22.6 µM; in the test on SK-MEL-5 melanoma it was 4.02 µM; in the test with MDA-MB-435 it was 4510 nM; in the test on HL-60(TB) leukemia, 3.21 µM; with CCRF-CEM leukemia, 11.6 µM.

Take `COC(=O)C(Cc1nc2ccccc2[nH]c1=O)C(=O)C(=O)Nc1ccc(OC)cc1[N+](=O)[O-]` (configuration not stated): the TGI with IGROV1 ovarian, in the test with SF-295 CNS, in the test on K-562 leukemia, with SK-MEL-5 melanoma, in the test with COLO 205 colon and in the test with HL-60(TB) leukemia was more than 100 µM in each case. Besides, the TGI in the test on CCRF-CEM leukemia and in the test with KM12 colon was more than 100 µM in each case.

Turning to `O=C(O)C1OC(Oc2cc(O)c3c(=O)cc(-c4ccc(O)cc4)oc3c2)C(O)C(O)C1O` (configuration not stated), the TGI with SF-295 CNS, with SK-MEL-5 melanoma, in the test with COLO 205 colon, in the test with HL-60(TB) leukemia and in the test with KM12 colon was more than 100 µM in each case.

Regarding `COc1cc(C2C(C#N)=C(N)Oc3cc(O)ccc32)cc(OC)c1OC` (configuration not stated), the GI50 in the test with IGROV1 ovarian is 2190 nM; with SF-295 CNS, 374 nM; in the test on K-562 leukemia, 435 nM; in the test with SK-MEL-5 melanoma, 370 nM; in the test with COLO 205 colon, 583 nM; with MDA-MB-435, 147 nM. The GI50 in the test with HL-60(TB) leukemia is 311 nM; with CCRF-CEM leukemia, 0.37 µM; with KM12 colon it was 454 nM. Further, the TGI was more than 100 µM in the test with IGROV1 ovarian; more than 100 µM with SF-295 CNS; more than 100 µM with K-562 leukemia; 26.7 µM with SK-MEL-5 melanoma; 4.1 µM with COLO 205 colon; 643 nM with MDA-MB-435. Also, the TGI in the test with HL-60(TB) leukemia was more than 100 µM; in the test on CCRF-CEM leukemia, more than 100 µM; in the test with KM12 colon, 63.3 µM.

Consider `CC1=C(C(=O)Nc2ccccc2C)C(c2ccc(C3C(C(=O)Nc4ccccc4C)=CNC=C3C(=O)Nc3ccccc3C)cc2)C(C(=O)Nc2ccccc2C)=C(C)N1`, for which the TGI is 37.1 µM with IGROV1 ovarian; 37.7 µM in the test on SF-295 CNS; more than 73.4 µM with K-562 leukemia; 17.8 µM in the test on SK-MEL-5 melanoma; 50.1 µM in the test with COLO 205 colon; 29.9 µM in the test on HL-60(TB) leukemia. For the same molecule, the TGI in the test on CCRF-CEM leukemia was more than 29 µM; in the test on KM12 colon, 29.2 µM.

As for `COc1cc(-c2cc(CCC(=O)Nc3ccccc3[N+](=O)[O-])n(-c3ccc([N+](=O)[O-])cc3[N+](=O)[O-])n2)ccc1O`, the GI50 in the test on IGROV1 ovarian is more than 100000 nM; in the test on K-562 leukemia it was more than 10000 nM; with SK-MEL-5 melanoma, more than 100000 nM; in the test with COLO 205 colon it was more than 100000 nM; with HL-60(TB) leukemia, more than 100000 nM; in the test on CCRF-CEM leukemia, more than 100 µM. Besides, the TGI in the test on IGROV1 ovarian is more than 100 µM; in the test with SF-295 CNS, more than 10 µM; in the test on K-562 leukemia, more than 100 µM; in the test with SK-MEL-5 melanoma, more than 100 µM; with COLO 205 colon, more than 100 µM; in the test on HL-60(TB) leukemia, more than 100 µM. Also, the TGI in the test with CCRF-CEM leukemia is more than 100 µM; in the test on KM12 colon, more than 10 µM.
